Tested on: cultured hair follicles
Assay: Radioactive cysteine incorporation in cultured hair follicles as a measure of hair growth
Type: cell-based, mice
Procedure: In this system, follicles were dissected from 4 day old mice. Healthy follicles were selected visually and cultured in serum free media supplemented with insulin, transferrin and selenium. The activity of compositions comprising one or more of the test compounds in stimulating hair growth was measured by radioactive cysteine labeling of the newly formed hair proteins and expressed as a percentage of the activity of a control (i.e., no test compounds present).

## Glycyl-L-Histidyl-L-Lysyl-L-Valyl-L-Phenylalanyl-L-Valine: Copper Complex
At the concentrations used (Minoxidil 1 mM, peptide copper complex 10 μM)
  radioactive cysteine incorporation relative to control (result in words): stimulated radioactive cysteine incorporation above that of the control
Peptide copper complex 10 μM, follicles from 4 day old mice, serum free media
  % of Cysteine Incorporation of Control (no addition): 113%

From patent US20040142853A1, “Stimulation of hair growth by compositions containing peptide copper complexes and minoxidil” (priority 2002, published 2004)
